Measured values: patent publication US10703748B2, “Diazanaphthalen-3-yl carboxamides and preparation and use thereof” (Samumed, LLC, priority 2017, dated 2020)

Key:
IL-6 = IL-6 inhibition in LPS-stimulated human peripheral blood mononuclear cells (HTRF); settings: Homo sapiens, PBMC; for EC50: 22 h; for inhibition at 10 µM: read-out: percentage in parentheses after EC50 >10
Protocol: Each compound was dissolved in DMSO (Catalog # D8418-100 ml, Sigma-Aldrich, St. Louis, Mo.) as a 10 mM stock and used to prepare compound source plates. […] After 22 hour incubation, a mixture of anti-IL6 XL665 and anti-IL-6 Cryptate diluted in reconstitution buffer (Catalog #62IL6PEC, Cisbio Inc., Bedford, Mass.) was added to each well. […] All samples were processed in duplicate. […] EC50 was determined using software generated by Dotmatics Limited (Windhill Bishops Stortford Herts, UK) using the Levenberg-Marquardt 4 parameter fitting procedure with finite different gradients.

[1] = tested on: α-smooth muscle actin (aSMA) positive LL29 cells; experiment: Inhibition of the fibrotic process: αSMA staining in TGF-β1 treated LL29 fibroblasts from IPF patients; settings: Homo sapiens, Fibroblast; for EC50: 96 h; for inhibition at 10 µM: read-out: percentage in parentheses after EC50 >10
DYRK1A kinase = DYRK1A kinase (Homo sapiens, UniProt Q13627); experiment: DYRK1A kinase activity (Ser/Thr 18 peptide Z-lyte FRET assay); format: biochemical; settings: recombinant DYRK1A, 30 μM ATP, one hour at room temperature;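 further: kinase activity read as coumarin/fluorescein emission ratio after development step, with unphosphorylated and phosphorylated peptide forms setting 0% and 100% controls, values from dose-response curves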
GSK3β kinase = GSK3β kinase (Homo sapiens, UniProt P49841); experiment: GSK3β kinase activity (Ser/Thr 09 peptide Z-lyte FRET assay); format: biochemical; settings: recombinant kinase, 46 μM ATP, one hour at room temperature; read-out: EC50
[2] = tested on: Tau phosphorylation at Threonine 212 (pT212Tau); experiment: Tau phosphorylation at Threonine 212 (pT212Tau) in Dyrk1a- and MAPT-overexpressing HEK293T cells, sandwich ELISA; format: cell-based; settings: Homo sapiens, HEK-293T, overnight (16-18 hours), read-out: Thr212 EC50
Protocol: HEK293T cells (transfectable human embryonic kidney cells) were cultured in DMEM medium supplemented with 10% FBS and 1% penicillin/streptomycin.
HEK293T cells were transiently transfected to overexpress Dyrk1a and microtubule-associated protein Tau (MAPT) genes. Specifically, Dyrk1a and MAPT expression vectors were obtained from OriGene (10 μg of each, catalog numbers SC314641 and RC216166, respectively). A MaxiPrep for each vector was ordered and received from GeneWiz, yielding 874.5 μg (resuspended at […]) of the Dyrk1a expression vector, and 898 μg (resuspended at […]) of MAPT.
HEK293T cells were seeded at 1.0×10^7 cells in 10 mL per T-75 flask. […] One T-75 flask was designated as a no-vector negative control for pT212Tau signal.
After 4-6 hours of incubation in transfection reagents, transiently double transfected HEK293T cells were dissociated by treatment with trypsin EDTA and seeded at 1.0×10^5 cells in 100 μL per well in 96-well plates. No-vector negative controls were seeded in separate 96-well plates to avoid the risk of the negative control cells picking up the overexpression during incubation. At the time of seeding, DMSO-resuspended Samumed compounds were dispensed to eight wells as a serial dilution from 10 μM to 4.6 nM final concentration in medium, or at 0.12 μM to 0.05 nM with particularly potent compounds. Cells were exposed to the representative compounds overnight (16-18 hours) in a 37° C. incubator.
96-Well flat-bottom plates were coated with 100 μL per well anti-HT7 capture antibody (ThermoFisher, MN1000) diluted 1:300 in 1×PBS at 4° C. overnight, with shaking at 500 rpm. After overnight capture antibody incubation, coated plates were washed four times with 200 μL per well of 1×PBS-0.05% Tween-20, and blocked for 1 hour with 200 μL per well of 1×PBS with 2% BSA. After 1 hour of blocking, plates were washed four times with 200 μL per well of 1×PBS-0.05% Tween-20, prior to sample loading.
Wells of compound-treated cells were visually checked for cell death before being washed with 200 μL per well of 1×DPBS supplemented with phosphatase inhibitor diluted to 1×. Cells were then lysed with 100 μL 1×RIPA buffer supplemented with phosphatase and protease inhibitors (each diluted to a final 1×). Cells were shaken at 500 rpm, 4° C. for 20 minutes prior to further lysis (via manual scraping) and transfer to 96-well V-bottom collection plates (Corning, 3894). V-bottom plates were centrifuged at 4000 rpm, 4° C., for 15 minutes, and 100 μL of lysate supernatant from each well was directly tested for pT212Tau signal by sandwich ELISA.
Specifically, lysates were directly transferred to the coated and blocked ELISA plates for 2 hours before plates were washed four times with 200 μL per well of 1×PBS-0.05% Tween-20 and probed with 100 μL per well of anti-pT212Tau antibody (ThermoFisher, 44-740G) diluted 1:200 in 1×PBS for 2 hours. Plates were washed four times with 200 μL per well of 1×PBS-0.05% Tween-20 and probed with 100 μL per well of anti-rabbit/HRP conjugate (Cell Signaling Technology, 7074S) diluted 1:600 in 1×PBS for 1 hour. Plates were washed four times with 200 μL per well of 1×PBS-0.05% Tween-20 before 100 μL per well of TMB substrate solution (ThermoFisher, N301) was added. When colour development was observed, 100 μL per well of stop solution (ThermoFisher, N600) was added, and colorimetric detection of pT212Tau signal was read at 450 nm with the Cytation 3 Cell Imaging Multi-Mode Reader (BioTek). The signal was used to plot, draw the curves fitting, and determine the EC50 values in GraphPad Prism for tested representative compounds.

[3] = tested on: SW480 colon carcinoma cells; experiment: Cell viability assay (CellTiter-Glo); settings: Homo sapiens; for EC50: SW480, 96 h; for inhibition at 10 µM: SW480, read-out: percent inhibition at 10 μM
[4] = tested on: secreted cytokines TNFα, IL-6 and KC-GRO; experiment: Secreted cytokines in Lipopolysaccharide-stimulated BV-2 cells (Table 9 does not say which cytokine); format: cell-based, mouse; settings: Mus musculus, BV-2, 5 h; read-out: EC50
[5] = tested on: Wnt-responsive Sp5-Luc reporter in SW480 colon carcinoma cells; experiment: Screening assay for Wnt activity (Sp5-Luc reporter gene assay); settings: Homo sapiens; for EC50: SW480; for inhibition at 10 µM: SW480, read-out: percent inhibition at 10 μM
[6] = tested on: Tau phosphorylation at Ser396 (pSer396); experiment: Tau phosphorylation at Ser396 (pSer396) in SH-SY5Y cells, ELISA / western blot; format: cell-based, human; settings: Homo sapiens; SH-SY5Y cells, overnight (16-18 h); read-out: pSer396 Tau EC50;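 further: decrease in pSer396 Tau measured in lysates of treated cells by colorimetric ELISA or chemiluminescent western blot, same pSer396 antibody for both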
Protocol: Two days before treatment, cells were seeded onto 96 well plates at 5×10^4 cells/well.
The above synthesized compounds were screened using the cell assay procedure to assess decrease Tau phosphorylation at Ser396 (pSer396) described below.
Cells were lysed with RIPA buffer complemented with phosphatase and protease inhibitors then lysates were spun down at 12,000 g for 10 min to remove any cellular debris.

Sequence of GSK3β kinase (P49841 whole entry): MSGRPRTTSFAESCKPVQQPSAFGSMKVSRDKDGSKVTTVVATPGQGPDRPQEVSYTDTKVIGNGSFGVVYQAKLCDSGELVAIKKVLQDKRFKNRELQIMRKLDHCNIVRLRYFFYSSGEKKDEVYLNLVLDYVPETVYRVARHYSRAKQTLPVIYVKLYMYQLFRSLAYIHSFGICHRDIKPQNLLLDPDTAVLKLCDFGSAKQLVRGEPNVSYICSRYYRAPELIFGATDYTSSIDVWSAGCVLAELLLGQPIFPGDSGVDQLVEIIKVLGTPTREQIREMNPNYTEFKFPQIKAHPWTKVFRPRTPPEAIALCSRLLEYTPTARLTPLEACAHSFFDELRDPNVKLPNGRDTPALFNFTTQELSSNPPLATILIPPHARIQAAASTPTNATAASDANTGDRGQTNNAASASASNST

EC50 (IL-6) | EC50 (DYRK1A kinase) | EC50 (GSK3β kinase) | EC50 [2] | EC50 [3] | EC50 [4] | EC50 [5] | EC50 [6] | Structure (SMILES) | inhibition at 10 µM (IL-6) | EC50 [1] | inhibition at 10 µM [1] | inhibition at 10 µM [3] | inhibition at 10 µM [5]
> 10000 nM | 71 nM | 541 nM | 263 nM | > 10000 nM | 1130 nM | > 10000 nM |  | CN1CCCN(CC(=O)Nc2cc3nc(-c4cnn(C)c4)ccc3cn2)CC1 [Compound 105, 2-(4-Methyl-1,4-diazepan-1-yl)-N-(2-(1-methyl-1H-pyrazol-4-yl)-1,6-naphthyridin-7-yl)acetamide] | 2.6% | > 10000 nM | 16.9% | 38.9% | 45.4%
5710 nM | 150 nM | 335 nM | 32 nM | 2410 nM |  | > 10000 nM |  | Cn1ncc(-c2ccc3cnc(NC(=O)C4CC5(C4)CN(CCF)C5)cc3n2)c1CN1CCCCC1 [Compound 280, 2-(2-Fluoroethyl)-N-(2-(1-methyl-5-(piperidin-1-ylmethyl)-1H-pyrazol-4-yl)-1,6-naphthyridin-7-yl)-2-azaspiro[3.3]heptane-6-carboxamide] |  | 2520 nM |  |  | 33.7%
> 10000 nM | 77 nM | 621 nM | 6600 nM | > 10000 nM |  | > 10000 nM |  | Cc1ncc(-c2ccc3cnc(NC(=O)N4CCC(N5CCOCC5)CC4)cc3n2)o1 [Compound 566, N-(2-(2-Methyloxazol-5-yl)-1,6-naphthyridin-7-yl)-4-morpholinopiperidine-1-carboxamide] | 3.6% | > 10000 nM | 35.2% | 19.7% | 33.2%
> 10000 nM | 2 nM | 1170 nM | 6 nM | 5340 nM |  | 2380 nM |  | Cn1cncc1-c1ccc2cnc(NC(=O)c3ccc(F)cc3)nc2c1 [Compound 1354, 4-Fluoro-N-(7-(1-methyl-1H-imidazol-5-yl)quinazolin-2-yl)benzamide] | 39.9% | 5090 nM |  |  | 
> 10000 nM | > 10000 nM | > 10000 nM | > 10000 nM | > 10000 nM |  | > 10000 nM | > 10000 nM | Cn1cc(-c2ccc3nnc(NC(=O)C4CC4)cc3c2)cn1 [Compound 1815, N-(6-(1-Methyl-1H-pyrazol-4-yl)cinnolin-3-yl)cyclopropanecarboxamide] | 7% | > 10000 nM | 33.5% | 15.8% | 12.9%
> 10000 nM | 39 nM | > 10000 nM | 310 nM | 4060 nM |  | > 10000 nM | > 10000 nM | Cn1cc(-c2cnc3cnc(NC(=O)c4ccc(OC5CCNCC5)cc4)cc3c2)cn1 [Compound 2864, N-(3-(1-Methyl-1H-pyrazol-4-yl)-1,7-naphthyridin-6-yl)-4-(piperidin-4-yloxy)benzamide] | 10% | > 10000 nM | 7.3% |  | 47.3%
> 10000 nM | 41 nM | > 10000 nM | 1600 nM | 2480 nM |  | 2200 nM | > 10000 nM | Cn1cc(-c2cnc3cnc(NC(=O)c4ccnc(N5CCNCC5)c4)cc3c2)cn1 [Compound 2866, N-(3-(1-Methyl-1H-pyrazol-4-yl)-1,7-naphthyridin-6-yl)-2-(piperazin-1-yl) isonicotinamide] | 0% | > 10000 nM | 47.4% |  | 
> 10000 nM | 12 nM | > 10000 nM | 42 nM | 1550 nM | 1000 nM | 1950 nM |  | CC(C)n1cc(C(=O)Nc2cc3nc(-c4cncc(NC5CCN(C)CC5)n4)ccc3cn2)cn1 [Compound 4565, 1-Isopropyl-N-(2-(6-((1-methylpiperidin-4-yl)amino)pyrazin-2-yl)-1,6-naphthyridin-7-yl)-1H-pyrazole-4-carboxamide] | 10.2% | > 10000 nM | 31% |  | 
> 10000 nM | 8 nM | > 10000 nM | 238 nM | 2220 nM |  | 570 nM |  | CN1CCC(Nc2cc(C(=O)Nc3ncc4ccc(-c5cnn(C)c5)cc4n3)ccn2)CC1 [Compound 4569, N-(7-(1-Methyl-1H-pyrazol-4-yl)quinazolin-2-yl)-2-((1-methylpiperidin-4-yl)amino)isonicotinamide] | 42.3% | 4090 nM |  |  | 
> 10000 nM | 29 nM | > 10000 nM |  | > 10000 nM | 261 nM | > 10000 nM | > 10000 nM | O=C(Nc1cc2cc(-c3cnco3)cnc2cn1)[C@H]1CC[C@H](CO)CC1 [Compound 4610] | 10.3% | 4190 nM |  | 24.6% | 9.1%
> 10000 nM | 18 nM | 3820 nM |  | > 10000 nM | 108 nM | > 10000 nM | 1050 nM | CN(C)[C@H]1CC[C@H](C(=O)Nc2cc3cc(-c4cncs4)cnc3cn2)CC1 [Compound 4618] | 6.3% | 4810 nM |  | 36.1% | 14.6%
> 10000 nM | 5 nM | 321 nM |  | > 10000 nM | 700 nM | 922 nM | 7930 nM | CN1CCN(c2ncc(C(=O)Nc3cc4cc(-c5cnn(C)c5)ncc4cn3)s2)CC1 [Compound 4632, N-(6-(1-methyl-1H-pyrazol-4-yl)-2,7-naphthyridin-3-yl)-2-(4-methylpiperazin-1-yl)thiazole-5-carboxamide] | 6.8% | > 10000 nM | 35.5% | 40.9% | 

Structure (SMILES) | EC50 (IL-6) | EC50 (DYRK1A kinase) | EC50 (GSK3β kinase) | EC50 [2] | EC50 [3] | EC50 [4] | EC50 [5] | EC50 [6] | inhibition at 10 µM (IL-6) | EC50 [1] | inhibition at 10 µM [1] | inhibition at 10 µM [3] | inhibition at 10 µM [5]
Cc1nnc(-c2ccc3cnc(NC(=O)CN4C5CCC4CC5)nc3c2)s1 [Compound 1632, 2-(7-Azabicyclo[2.2.1]heptan-7-yl)-N-(7-(5-methyl-1,3,4-thiadiazol-2-yl)quinazolin-2-yl)acetamide] | > 10000 nM | 500 nM | 943 nM | 402 nM | > 10000 nM |  | > 10000 nM |  | 4.2% | > 10000 nM | 28.8% | 21.3% | 19.2%
